In one experiment the target is PHD2181-417 (Homo sapiens (Human), UniProt Q9GZT9). Briefly: PHD enzymatic assay ([14C]-succinic acid production). It counts as biochemical. Particulars: purified PHD2181-417, HIF-1α peptide substrate, 30 min pre-incubation; average of results. Here is the method:
Expression and Purification of PHD2181-417
The human PHD2 expression construct containing amino acids 181-417 of GenBank Accession ID NM_022051 was cloned into a pBAD vector (Invitrogen), incorporating both an N-terminal histidine tag and a Smt3-tag, both of which are cleaved by Ulp1. Protein production was achieved by expression in BL21 cells grown in Terrific Broth containing 100 μg/ml ampicillin. Cell cultures were inoculated at 37° C. and grown to an OD600 of 0.8. Cultures were induced with 0.1% arabinose and grown overnight at 20° C. with continuous shaking at 225 rpm. Cells were then harvested by centrifugation and stored at −80° C. Cell pellets were suspended in Buffer A (50 mM Tris-HCl pH 7.2, 100 mM NaCl, 100 mM L-arginine, 1 mM TCEP, 0.05% (w/v) NP-40, 50 mM imidazole) followed by the addition of lysozyme and benzonase. Cells were lysed by sonication and the lysate was cleared by centrifugation (15,000 rpm, 90 min, 4° C.). The protein was purified by nickel affinity chromatography using a HisTrap Crude FF column (GE Healthcare). Samples were eluted in Buffer A with a 50-200 mM imidazole gradient. Cleavage of the Smt tag with Ulp1 protease was achieved via overnight incubation with dialyzing against Buffer A. The PHD2181-417 sample was then passed over a second HisTrap Crude FF column (GE Healthcare) to remove uncleaved protein. The flow-through was then dialyzed into 50 mM MES pH 6.0, 1 mM TCEP, 5 mM NaCl for ion exchange chromatography on a HiTrap SP Cation Exchange column (GE Healthcare). The PHD2181-417 protein was eluted with a 0-0.2 M NaCl gradient. Fractions were pooled for further purification by size exclusion chromatography over a Superdex 75 Size Exclusion Column (GE Healthcare). Final protein was concentrated to 4 mg/ml and dialyzed in 10 mM PIPES pH 7.0, 100 mM NaCl, 0.5 mM TCEP.
(10 μM, California Peptide Research Inc., Napa, Calif.), and [5-^14C]-2-oxoglutaric acid (50 mCi/mmol, Moravek Chemicals, Brea, Calif.) in reaction buffer (40 mM Tris-HCl, pH 7.5, 0.4 mg/ml catalase, 0.5 mM DTT, 1 mM ascorbate) for 10 minutes. Compounds were pre-incubated for 30 min before starting the reaction (all test compounds were dissolved at 10 mM in 100% DMSO (w/v) and were tested with final compound concentrations at 100 μM in 1% DMSO (w/v)). The reaction was stopped by addition of 50 μl of 70 mM H3PO4 and 50 μl of 500 mM NaH2PO4, pH 3.2. Detection of [^14C]-succinic acid was achieved by separating from [5-^14C]-2-oxoglutaric acid by incubating the reaction mixture with 100 μl of 0.16 M DNP prepared in 30% perchloric acid. Next, 50 μl of unlabeled 20 mM 2-oxoglutaric acid/20 mM succinic acid, serving as carrier for the radioactivity, was added to the mixture, and was allowed to proceed for 30 minutes at room temperature. The reaction was then incubated with 50 μl of 1 M 2-oxoglutaric acid for 30 additional minutes at room temperature to precipitate the excess DNP. The reaction was then centrifuged at 2800×g for 10 minutes at room temperature to separate [^14C]-succinic acid in the supernatant from the precipitated [^14C]-dinitrophenylhydrazone. Fractions of the supernatant (400 μI) were counted using a beta counter (Beckman Coulter, Fullerton, Calif.). Inhibition of PHD2181-417 activity was measured as a decrease in succinic acid production. The IC50 values were estimated by fitting the data to a three-parameter logistic function using GraphPad Prism, version 4.02 (Graph Pad Software, San Diego, Calif.).

In experiment [1] the test system is Erythropoietin secretion, Hep-3B cells. The experiment can be described thus: Cellular assay: EPO secretion in Hep-3B cells. The experiment is classed as cell-based. Particulars: Homo sapiens, Hep3B, 100 μM compound, 24 hours, percent of EPO secretion relative to assay control compound 7-[(4-Chloro-phenyl)-(5-methyl-isoxazol-3-ylamino)-methyl]-quinolin-8-ol, read-out: Cellular % EPO Stimulation. Here is the method: Hep-3B cells (ATCC, Manassas, Va.) were plated in 96-well plates at 20,000 cells per well in 100 μl of DMEM containing 10% fetal bovine serum, 1% non-essential amino acids, 50 IU/mL of penicillin and 50 μg/mL of streptomycin (all cell culture reagents from Invitrogen, Carlsbad, Calif.). Twenty-four hours after plating, compounds were added and incubated for an additional 24 hours. All compounds were tested with final compound concentrations at 100 μM. Fifty microliters of the supernatant was then transferred to a human Hypoxia assay kit (Meso-Scale Discovery, Gaithersburg, Md.). Erythropoietin in the supernatant was detected according to the manufacturer's instructions as follows. EPO detection plates were blocked with 3% BSA in PBS overnight and 50 μl of the supernatant was incubated at room temperature in an orbital shaker for 2 h. Twenty-five microliters of 0.5 μg/ml anti-EPO detection antibody was added for 2 hours at room temperature in an orbital shaker. After 3 washes in PBS, 150 μl of 1× read buffer is added and the plate is then read on the MSD SECTOR instrument. Data was analyzed by determining the percent of EPO secretion in the presence of 100 μM compound relative to an assay control compound, 7-[(4-Chloro-phenyl)-(5-methyl-isoxazol-3-ylamino)-methyl]-quinolin-8-ol.

PHD2181-417, sequence (Q9GZT9 181-417): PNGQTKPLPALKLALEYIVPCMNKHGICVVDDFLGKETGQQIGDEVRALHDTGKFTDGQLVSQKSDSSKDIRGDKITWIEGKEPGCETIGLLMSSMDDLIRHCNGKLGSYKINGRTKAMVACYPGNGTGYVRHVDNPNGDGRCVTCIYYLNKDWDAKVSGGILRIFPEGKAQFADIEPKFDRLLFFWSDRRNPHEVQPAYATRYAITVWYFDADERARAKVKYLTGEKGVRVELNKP

In the case of `CCCNc1nc(-n2cc(C(=O)O)cn2)nc2cc(F)c(Oc3c(C)cccc3C)cc12` [Example 8, 1-[6-(2,6-Dimethyl-phenoxy)-7-fluoro-4-propylamino-quinazolin-2-yl]-1H-pyrazole-4-carboxylic acid], at PHD2181-417, the “Enzyme pIC50” value worked out at 7.2. For the same molecule, the activation at 100 µM in experiment [1] turned out to be 59%.

With `CCN(CC)CCNc1nc(-n2cc(C(=O)O)cn2)nc2cc(F)c(Oc3c(C)cccc3C)cc12` [Example 10, 1-[4-(2-Diethylamino-ethylamino)-6-(2,6-dimethyl-phenoxy)-7-fluoro-quinazolin-2-yl]-1H-pyrazole-4-carboxylic acid], on PHD2181-417, the “Enzyme pIC50” value worked out at 5.9. The activation at 100 µM in experiment [1] turned out to be 13%.

Regarding `CCCCN(CCCC)c1nc(-n2cc(C(=O)O)cn2)nc2cc(F)c(Oc3c(C)cccc3C)cc12` [Example 11, 1-[6-(2,6-Dimethyl-phenoxy)-4-dibutylamino-7-fluoro-quinazolin-2-yl]-1H-pyrazole-4-carboxylic acid], the “Enzyme pIC50” value at PHD2181-417 is recorded as 7.1. Besides, in experiment [1], the activation at 100 µM stood at 9%.

Consider `CCCN(CCC)c1nc(-n2cc(C(=O)O)cn2)nc2cc(F)c(Oc3c(C)cccc3C)cc12` [Example 12, 1-[6-(2,6-Dimethyl-phenoxy)-4-dipropylamino-7-fluoro-quinazolin-2-yl]-1H-pyrazole-4-carboxylic acid], for which the “Enzyme pIC50” value on PHD2181-417 is given as 7.4. In addition, the activation at 100 µM in experiment [1] was determined as 9%.

As to `Cc1cccc(C)c1Oc1cc2c(NCC3CCCCC3)nc(-n3cc(C(=O)O)cn3)nc2cc1F` [Example 13, 1-(4-((Cyclohexylmethyl)amino)-6-(2,6-dimethylphenoxy)-7-fluoroquinazolin-2-yl)-1H-pyrazole-4-carboxylic acid], the “Enzyme pIC50” value at PHD2181-417 stood at 6.9. In addition, the activation at 100 µM in experiment [1] is 10%.

For `Cc1cccc(C)c1Oc1cc2c(NC3CC3)nc(-n3cc(C(=O)O)cn3)nc2cc1F` [Example 14, 1-((4-Cyclopropylamino)-6-(2,6-dimethylphenoxy)-7-fluoroquinazolin-2-yl)-1H-pyrazole-4-carboxylic acid], on PHD2181-417, the “Enzyme pIC50” value is 7.1. Moreover, in experiment [1], the activation at 100 µM was determined as 86%.

With `Cc1cccc(C)c1Oc1cc2c(NC3CCOCC3)nc(-n3cc(C(=O)O)cn3)nc2cc1F` [Example 16, 1-(6-(2,6-Dimethylphenoxy)-7-fluoro-4-((tetrahydro-2H-pyran-4-yl)amino)quinazolin-2-yl)-1H-pyrazole-4-carboxylic acid], the “Enzyme pIC50” value at PHD2181-417 was 7.1. Moreover, the activation at 100 µM in experiment [1] turned out to be 71%.

As to `Cc1cccc(C)c1Oc1cc2c(N3CCOCC3)nc(-n3cc(C(=O)O)cn3)nc2cc1F` [Example 20, 1-(6-(2,6-Dimethylphenoxy)-7-fluoro-4-morpholinoquinazolin-2-yl)-1H-pyrazole-4-carboxylic acid], the “Enzyme pIC50” value at PHD2181-417 was 7.0. The activation at 100 µM in experiment [1] came out at 54%.

In the case of `CNc1nc(-n2cc(C(=O)O)cn2)nc2ccc(C3CCCCC3)cc12` [Example 22, 1-(6-Cyclohexyl-4-methylamino-quinazolin-2-yl)-1H-pyrazole-4-carboxylic acid], the “Enzyme pIC50” value at PHD2181-417 is on record as 7.1. Besides, in experiment [1], the activation at 100 µM turned out to be 48%.

In the case of `Nc1nc(-n2cc(C(=O)O)cn2)nc2ccc(C3CCCCC3)cc12` [Example 24, 1-(4-Amino-6-cyclohexylquinazolin-2-yl)-1H-pyrazole-4-carboxylic acid], the “Enzyme pIC50” value on PHD2181-417 came out at 7.5. The activation at 100 µM in experiment [1] stood at 36%.

For the molecule `O=C(O)c1cnn(-c2nc(N3CCCC3)c3cc(C4CCCCC4)ccc3n2)c1` [Example 25, 1-(6-Cyclohexyl-4-(pyrrolidin-1-yl)quinazolin-2-yl)-1H-pyrazole-4-carboxylic acid], on PHD2181-417, the “Enzyme pIC50” value is 6.4. Also, the activation at 100 µM in experiment [1] is 39%.

As for `O=C(O)c1cnn(-c2nc(N3CCCCC3)c3cc(C4CCCCC4)ccc3n2)c1` [Example 26, 1-(6-Cyclohexyl-4-(piperidin-1-yl)quinazolin-2-yl)-1H-pyrazole-4-carboxylic acid], on PHD2181-417, the “Enzyme pIC50” value was 7.1. Besides, the activation at 100 µM in experiment [1] came out at 20%.

On to `CCN(CC)c1nc(-n2cc(C(=O)O)cn2)nc2ccc(C3CCCCC3)cc12` [Example 27, 1-(6-Cyclohexyl-4-(diethylamino)quinazolin-2-yl)-1H-pyrazole-4-carboxylic acid], for which the “Enzyme pIC50” value on PHD2181-417 came to 7.3. Moreover, in experiment [1], the activation at 100 µM came out at 45%.

For `O=C(O)c1cnn(-c2nc(Nc3ccccc3)c3cc(C4CCCCC4)ccc3n2)c1` [Example 28, 1-(6-Cyclohexyl-4-(phenylamino)quinazolin-2-yl)-1H-pyrazole-4-carboxylic acid], the “Enzyme pIC50” value at PHD2181-417 was found to be 7.3. For the same molecule, in experiment [1], the activation at 100 µM stood at 31%.

Take `O=C(O)c1cnn(-c2nc(NC3CC3)c3cc(C4CCCCC4)ccc3n2)c1` [Example 32, 1-(6-Cyclohexyl-4-(cyclopropylamino)quinazolin-2-yl)-1H-pyrazole-4-carboxylic acid]: the “Enzyme pIC50” value at PHD2181-417 is on record as 6.7. In experiment [1], the activation at 100 µM amounted to 49%.

Consider `O=C(O)c1cnn(-c2nc(N3CCOCC3)c3cc(C4CCCCC4)ccc3n2)c1` [Example 33, 1-(6-Cyclohexyl-4-morpholinoquinazolin-2-yl)-1H-pyrazole-4-carboxylic acid], for which the “Enzyme pIC50” value on PHD2181-417 was 6.8. Further, the activation at 100 µM in experiment [1] was 36%.

Take `O=C(O)c1cnn(-c2nc(N3CCSCC3)c3cc(C4CCCCC4)ccc3n2)c1` [Example 34, 1-(6-Cyclohexyl-4-thiomorpholinoquinazolin-2-yl)-1H-pyrazole-4-carboxylic acid]: the “Enzyme pIC50” value at PHD2181-417 amounted to 6.9. Moreover, the activation at 100 µM in experiment [1] turned out to be 20%.

Turning to `N#CNc1nc(-n2cc(C(=O)O)cn2)nc2ccc(C3CCCCC3)cc12` [Example 35, 1-(4-Cyanamido-6-cyclohexylquinazolin-2-yl)-1H-pyrazole-4-carboxylic acid], the “Enzyme pIC50” value on PHD2181-417 was determined as 7.2. Also, the activation at 100 µM in experiment [1] stood at 67%.

In the case of `O=C(O)c1cnn(-c2nc(N3CCCCCC3)c3cc(C4CCCCC4)ccc3n2)c1` [Example 37, 1-(4-(Azepan-1-yl)-6-cyclohexylquinazolin-2-yl)-1H-pyrazole-4-carboxylic acid], the “Enzyme pIC50” value on PHD2181-417 was found to be 7.1. Also, the activation at 100 µM in experiment [1] was found to be 17%.

Consider `CN(C)c1nc(-n2cc(C(=O)O)cn2)nc2ccc(C3CCCCC3)cc12` [Example 38, 1-(6-Cyclohexyl-4-(dimethylamino)quinazolin-2-yl)-1H-pyrazole-4-carboxylic acid], for which the “Enzyme pIC50” value at PHD2181-417 was determined as 7.2. For the same molecule, in experiment [1], the activation at 100 µM was 61%.

Values taken from patent publication US10246442B2, “4-Aminoquinazolin compounds as prolyl hydroxylase inhibitors” (JANSSEN PHARMACEUTICA NV, priority 2011, dated 2019).
